Experimental findings from patent US20260130369A1, “MARINE ALGICIDES” (Mote Marine Laboratory, Inc., priority 2022, published 2026) are described below.

The first experiment deals with K. brevis. Briefly: K. brevis mortality test of individual pure compounds against red tide cultures. Type of experiment: cell-based, Karenia brevis. To be noted: 100% mortality of K. brevis within 2 hours after administration to a water sample containing K. brevis. On the procedure: Shown below in Table 1 are one saturated fatty acid (viz., palmitic acid) and nine exemplary algicidal unsaturated fatty acids, along with their omega nomenclature (viz., number of carbon atoms, number of double bonds, number of carbon atoms from the carboxylic acid end to the first carbon in a double bond) and the required dosage in ppm to obtain 100% mortality of K. brevis, within 2 hours after administration to a water sample containing K. brevis, according to embodiments of the present disclosure.
The relative toxic effects shown in Table 1 were determined by obtaining individual pure compounds and testing them against red tide cultures of K. brevis. The compounds in Table 1 may also be tested as salts or soaps, and in water or non-methanolic solvents such as ethanol, acetone, acetic acid, dimethyl sulfoxide (DMSO) or other polar or non-polar solvent. […] In embodiments, the observed mortality may for example be at least 25%, at least 50%, at least 75%, at least 90% or as much as 100% in a desired time frame (e.g., within 2 hours, within 4 hours, within 8 hours, within 24 hours, or within 2, 3 or 4 days following application of the algicidal compound. In some embodiments, 100% death of red tide organisms may be achieved within 30 minutes of application within a target area. Additionally, extracts of macro algae common in environments suitable for K. brevis were tested to see how the mixture of fatty acids in those extracts would perform as algicidal agents. Use of a single compound instead of a mixture may be preferable under many common circumstances. However, Ulva latuca and Gracilaria tikvahiae contain mixtures of fatty acids and may be used as salts or soaps or in non-methanolic solutions to control K. brevis red tide blooms, according to embodiments of the present disclosure.
To measure K. brevis mortality in a liquid, the concentration of K. brevis is measured before any algaecides are added. An algaecide is then added, and the concentration of live K. brevis measured at intervals (e.g. 1, 2, 5, 10, 20, and 30 minutes). This may also be performed in serial stages. For example, if the mortality rate of K. brevis at 30 minutes is 100%, the experiment may be repeated and the concentration of K. brevis measured at a lesser time point, such as after 20 minutes. If the mortality rate of K. brevis is still 100%, the experiment may be repeated again with the concentration measured at a lesser time point, such as after 10 minutes. The experiment may be repeated as many times as necessary to measure how long it takes for an algaecide to reach 100% mortality rate of K. brevis. Any suitable time periods may be used to measure the concentration of K. brevis.
A variety of techniques may be used to measure K. brevis concentrations. In some embodiments, staining techniques are used. Staining may be performed with Lugol's Iodine Solution stain, which will become fixed to and stain the K. brevis so that it may be visualized. Other stains may be used, such as Invitrogen™ SYTOX™ Green from Thermo Fisher Scientific, which will penetrate compromised membranes (a feature characteristic of dead cells) of K. brevis and stain them. Fluorescein Diacetate may also be used, where live cells convert the fluorescein diacetate to […] which fluoresces and may be measured. Additionally, 4′,6-diamidino-2-phenylindole (DAPI) may also be used to stain nucleic acids that are inside or outside of cells. In addition to staining methods, the concentration of K. brevis may also be measured by other imaging techniques such as manual count, microscopy, fluorometry, flow cytometry, or other possible staining or counting techniques. FIG. 3 depicts one method of measuring K. brevis concentration using Invitrogen™ SYTOX™ Green.
Regarding `CCCCC/C=C\C/C=C\C/C=C\C/C=C\CCCCCC(=O)O` [Adrenic Acid], the “Dosage (PPM) for 100% Mortality in under 2 hrs” value (“Dosage (PPM) for 100% Mortality” for short) is listed as below 50 PPM.
`CC/C=C\C/C=C\C/C=C\CCCCCCCC(=O)O` [Alpha-linolenic Acid]: the “Dosage (PPM) for 100% Mortality” value is given as 3 PPM.
In the case of `CCCCC/C=C\C/C=C\C/C=C\C/C=C\CCCC(=O)O` [Arachidonic Acid], the “Dosage (PPM) for 100% Mortality” value is on record as 1.5 PPM.
For the molecule `CC/C=C\C/C=C\C/C=C\C/C=C\C/C=C\C/C=C\CCC(=O)O` [Docosahexanoic Acid], the “Dosage (PPM) for 100% Mortality” value is on record as below 2.5 PPM.
Still for that read-out and setting: the result for `CC/C=C\C/C=C\C/C=C\C/C=C\C/C=C\CCCC(=O)O` [Eicosapentaenoic Acid] reads below 2 PPM.
The same measure, in the same setting: the result for `CC/C=C\C/C=C\C/C=C\C/C=C\CCC(=O)O` [Hexadecatetraenoic Acid] reads above 1 PPM; that for `CCCCCCCCCCCCCCCC(=O)O` [Palmitic Acid, reference compound], above 10 PPM; that for `CCCCCC/C=C\CCCCCCCC(=O)O` [Palmitoleic Acid], 3 PPM.
Regarding `CC/C=C\C/C=C\C/C=C\C/C=C\CCCCC(=O)O` [Stearidonic Acid], the “Dosage (PPM) for 100% Mortality” value was above 2 PPM.
`CCCCCC/C=C\CCCCCCCCCC(=O)O` [Vacennic Acid]: the “Dosage (PPM) for 100% Mortality” value is recorded as above 6 PPM.

Another experiment concerns K. brevis cells. Briefly: Large-scale mesocosm experiment, efficacy of algicide treatment (red tide cell counts). Conditions: 15 or 25 ppm particles; 1400 L tanks; 1 million cells/L; first (15 minute) sampling period. Type of experiment: cell-based, Karenia brevis. On the procedure:
A large-scale mesocosm experiment was conducted to evaluate the efficacy of algicide treatment and marine organism toxicity. In each of four 1400 L exposure tanks containing K. brevis cells at a red tide concentration of 1 million cells/L, potassium ricinoleate particles were added to the tanks at levels of 15 or 25 ppm. At 15 minutes after addition of the algicidal agent to each tank, water samples were collected for red tide cell counts.
Marine organism toxicity was evaluated by adding grass shrimp or Gulf killifish to the tanks along with the red tide cells and 15 or 25 ppm of the algicidal compounds. The red tide cells were quickly killed as before. After 18 and 24 hours, all shrimp remained alive. After 18 hours all fish were alive, but significant fish mortality was observed after 24 hours. The fish mortality was determined to be due to insufficient tank water circulation and oxygenation, and repeating the fish experiment with adequate circulation and oxygenation should eliminate or at least reduce the observed fish mortality.
For `CCCCCC[C@@H](O)C/C=C\CCCCCCCC(=O)[O-].[K+]` [potassium ricinoleate], the “red tide cell mortality (no live cells under microscopic examination)” value is recorded as “complete red tide cell mortality”.
